Several values for one entry are separate records, joined by “and”; a condition that tells them apart may be missing. Equal entries are not always repeated.
Key:
[1] = test system: HDAC4 phosphorylation in PANC-1 cells; assay: HDAC4 phosphorylation (Meso Scale Discovery assay); conditions: 10 ng/mL rHuTNF, 3 h
[2] = Screening PK in mice after 30 mg/kg po; conditions: for concentration at 6 h: mice, 30 mg/kg po
MC38 tumour = assay: MC38 syngeneic tumour model, tumour growth and survival; type: in vivo, mice; conditions: E9 24 mg/kg BID compared to dasatinib 30 mg/kg QD
Method: Error bars SEM. X-axes: Days. Statistical significance was calculated with two-way ANOVA analysis including Tukey's multiple comparison analysis. ***p<0.001; (B) Body weight kinetics of the mice in (A). Y-axis: Mean body weight change (%).
Y-axis=Mean tumour volume (mm3). […] X-axis=Days. […] X-axis: Days.
Left hand column=compound treatment group; and right hand column=vehicle treatment group. Y axes=Tumour volume (mm3); X axes=Days after inoculation.
FIG. 29: depicts the effect of compound E9 and anti PD-1 mAB (alone or in combination) on in vivo tumour growth (mean+/−SEM) in a MC38 syngeneic tumour model. (A) Y axes=Tumour volume (mm3); X axes=Days after start of therapy. Vehicle+anti PD-1 mAB (squares), vehicle+mIgG1e ctr (circles), E9+anti PD-1 mAB (inverted triangles), and E9+mIgG1e ctr (triangles). (B) Median overall survival.) Y axes=Probability of survival (%); X axes=Days after start of therapy. Vehicle+anti PD-1 mAB (grey/dashed), vehicle+mIgG1e ctr (black/solid), E9+anti PD-1 mAB (grey/solid), and E9+mIgG1e ctr (black/dashed). […] (C) E9 25 mg/kg BID; (D) aPD-1 2.5 mg/kg; (E) E9 50 mg/kg BID+aPD-1 2.5 mg/kg; and (F) vehicle.

[3] = test system: MC38 murine tumour cell line; assay: TNF-sensitised cell viability assay (CellTiter-Glo); conditions: Mus musculus
in vitro = conditions: mouse, microsomes
[4] = test system: EMT6 breast cancer tumours; assay: EMT6 immune-excluded (cold) tumour syngeneic mouse model; type: in vivo, BALB/c mice; set-up: key to Tukey's multiple comparisons test, Significance summary: ns = not significant; conditions: for Tukey's multiple comparisons test, Significance summary: EMT6 model; for tumour growth inhibition (TGI): EMT6
in vivo = conditions: male, CD1, mouse, po, 30 mg/kg
[5] = Metabolite profile in hepatocytes / in vivo
Description: Metabolites are identified using high-resolution mass spectrometry.

[6] = total plasma concentration at 30 mg/kg p.o dose, fold of C7 (C7 = 1×)

Structure (SMILES): Cc1nc(Nc2ncc(C(=O)Nc3c(CF)csc3Cl)s2)cc(N2CCN(C)CC2)n1 [Compound E9, N-(2-chloro-4-(fluoromethyl)thiophen-3-yl)-2-((2-methyl-6-(4-methylpiperazin-1-yl)pyrimidin-4-yl)amino)thiazole-5-carboxamide]
- Inhibition of HDAC4 phosphorylation [1]: ++
- fold improvement of free serum concentration over C7 ([2]; mouse, in vivo): 2 fold
- fold improvement of total serum concentration over C7 ([2]; mouse, in vivo): 4.5 fold
- Cmax at 2 h ([2]; mouse, plasma, po, 30 mg/kg): 426 ng/mL
- concentration at 6 h ([2]; mouse, plasma, po, 30 mg/kg, Free plasma concentration after 6 h (nM)): 7.7 nM
- concentration at 6 h ([2]; mouse, plasma, po, 30 mg/kg, Plasma concentration after 6 h (nM)): 309 nM
- AUC0-last (nM*h), relative to C7 [2, 6]: 8.2×
- C max (ng/ml), relative to C7 [2, 6]: 5.6×
- MRT0-last (h), relative to C7 [2, 6]: 1.2×
- t1/2 (h), relative to C7 [2, 6]: 2×
- tumour growth inhibition (MC38 tumour): superior and more uniform tumour growth inhibition
- IC50 ([3]; MC-38, read-out: MC38 IC50 (at 100 ng/mL rMuTNF)): < 100 nM
- EC50 ([3]; MC-38, read-out: mean EC50 of sensitising MC38 tumour cells to TNF-mediated killing): < 100 nM
- half-life (in vitro): 9 min
- microsomal CLint (in vitro): 158 µL/min/mg
- Tukey's multiple comparisons test, Significance summary ([4]; E9 25 mg/kg bid vs. E9 […] bid): ns
- Tukey's multiple comparisons test, Significance summary ([4]; E9 25 mg/kg qd vs. E9 5 mg/kg bid): ns
- tumour growth inhibition (TGI) ([4]; 5 mg/kg BID): 24% and 25%
- tumour growth inhibition (TGI) ([4]; 25 mg/kg BID): 37%
- tumour growth inhibition (TGI) ([4]; 25 mg/kg QD): 9%
- Tukey's multiple comparisons test, Significance summary ([4]; Vehicle vs. E9 25 mg/kg qd): ns
- AUC(0-inf) (in vivo): 9.63 µM·h
- AUC(0-t) (in vivo): 9.58 µM·h
- Cmax (in vivo): 2690 ng/mL
- MRT last (in vivo): 3.38 h
- Tmax (in vivo): 0.25 h
- half-life (in vivo): 2.76 h
- quinone-imine reactive metabolite [5]: not observed
